# Assay: Storage stability of DHAA in oxidized zucchini puree product, DHAA concentration by TCEP differential absorbance method
# Format: physicochemical
# Procedure: Four zucchini fruits about 6-8 inches long were purchased at a local grocery store. The shelf labeling indicated the fruits were a product of Mexico, as might be expected in Utah during the month of November when this experiment was conducted. Thus the fruit was not locally-grown and probably older (stored longer since picked) than known fresh-picked fruit. It is known that the AAO activity of zucchini fruit decreases during storage after being picked. The epicarp and outer portions of the mesocarp were peeled from the fruits, to the extent that approximately one-half of the weight of each fruit was included in the peelings. 300 grams of peelings were added to a blender with 100 grams purified water and pureed. 20 grams of the puree was removed and reserved for a “blank”. To the remaining puree (380 grams) was added 1.4 grams AA (as pure crystals approximately US mesh size 20-40) and the puree was mixed in the blender about 1 minute. The pH of the puree was measured and found to be 5.2, and a redox test indicated AA reducing activity in the puree. The puree was allowed to stand with periodic brief mixing for 35 minutes. […] A 20 gram portion was removed for a “test.” The blank and test solutions were centrifuged to remove the pulp so that pulp-free solutions could be spectrophotometrically analyzed. 25 uL of each of these solutions were diluted in 10 mL of 0.15 M phosphoric acid diluent, and the absorbance of each was determined using a UV spectrometer at 262 nm wavelength blanked against diluent. 2 mL of each dilution were combined with 2 mL of a TCEP reagent, incubated one hour, and then the absorbance at 262 nm of these solutions were determined as above (TCEP reagent reduces DHAA in the solution to AA; absorbance measurements at wavelengths where AA strongly absorbs, before and after treatment with TCEP, is a method known to practitioners in the art to quantify DHAA concentration by the differential absorption principle). The following absorption values were obtained (TCEP values are corrected for the X2 dilution):
# One whole zucchini fruit weighing 235 grams was pureed in 120 mL water in a blender. The pH of the initial zucchini puree was 6.5. At time 0 minutes, 1.0 gram crystalline AA was added. After mixing 30 seconds, the pH was 5.0. At the times indicated in the table below, pH was recorded, iodine indicator redox result was recorded, and/or additional AA in the amounts indicated were added after testing the pH and redox status. The zucchini puree was continuously mixed in the blender during the entire time, and a cap in the top of the blender was left open to allow fresh air to be drawn into the vortex of the puree in the blender.
# The product was split into three equal parts. Part 1 was kept in a closed container at room temperature. Part 2 was kept in a closed container at standard refrigerator temperature of 4 degrees C. Part 3 was kept in a closed container at common freezer temperature of minus 20 degrees C. Part 1 was tested immediately for DHAA concentration by the TCEP method previously discussed, and then after overnight storage (approx. 12 hours); Part 2 was tested after overnight storage (approx. 12 hours), and then after 13 days; Part 3 was tested after 13 days. Recovery column is the actual concentration divided by the maximum expected DHAA concentration of 2.4%, expressed as percent.
structure (smiles),measurement,setting,value
"O=C1O[C@H]([C@@H](O)CO)C(=O)C1=O [DHAA, dehydroascorbic acid]",DHAA Concentration,"Example 3 product, Part 1, tested immediately, storage 0 hours",2.27%
same,DHAA Concentration,"Part 1, closed container, room temperature, 12 hours",1.68%
same,DHAA Concentration,"Part 2, refrigerator 4 degrees C, 12 hours",2.14%
same,DHAA Concentration,"Part 2, refrigerator 4 degrees C, 312 hours (13 d)",1.27%
same,DHAA Concentration,"Part 3, freezer minus 20 degrees C, 312 hours (13 d)",2.10%
same,Loss of DHAA on frozen storage,product stored frozen for at least 13 days,minimal loss

# — patent publication US20150368681A1, “Dehydroascorbic Acid Process” (priority 2014, published 2015)
